Here are results for two molecules from PMC3687672 (British Journal of Pharmacology, 2013).

In test [1] the target is T1, large-conductance Ca2+-activated K+ (BKCa) channel (Homo sapiens, UniProt Q12791). The test can be described thus: whole-cell patch clamp. Format: cell-based.
Test [2] addresses T1, large-conductance Ca2+-activated K+ (BKCa) channel. The test can be described thus: single-channel inside-out patch clamp. The format is cell-based.

T1 sequence (Q12791 whole entry): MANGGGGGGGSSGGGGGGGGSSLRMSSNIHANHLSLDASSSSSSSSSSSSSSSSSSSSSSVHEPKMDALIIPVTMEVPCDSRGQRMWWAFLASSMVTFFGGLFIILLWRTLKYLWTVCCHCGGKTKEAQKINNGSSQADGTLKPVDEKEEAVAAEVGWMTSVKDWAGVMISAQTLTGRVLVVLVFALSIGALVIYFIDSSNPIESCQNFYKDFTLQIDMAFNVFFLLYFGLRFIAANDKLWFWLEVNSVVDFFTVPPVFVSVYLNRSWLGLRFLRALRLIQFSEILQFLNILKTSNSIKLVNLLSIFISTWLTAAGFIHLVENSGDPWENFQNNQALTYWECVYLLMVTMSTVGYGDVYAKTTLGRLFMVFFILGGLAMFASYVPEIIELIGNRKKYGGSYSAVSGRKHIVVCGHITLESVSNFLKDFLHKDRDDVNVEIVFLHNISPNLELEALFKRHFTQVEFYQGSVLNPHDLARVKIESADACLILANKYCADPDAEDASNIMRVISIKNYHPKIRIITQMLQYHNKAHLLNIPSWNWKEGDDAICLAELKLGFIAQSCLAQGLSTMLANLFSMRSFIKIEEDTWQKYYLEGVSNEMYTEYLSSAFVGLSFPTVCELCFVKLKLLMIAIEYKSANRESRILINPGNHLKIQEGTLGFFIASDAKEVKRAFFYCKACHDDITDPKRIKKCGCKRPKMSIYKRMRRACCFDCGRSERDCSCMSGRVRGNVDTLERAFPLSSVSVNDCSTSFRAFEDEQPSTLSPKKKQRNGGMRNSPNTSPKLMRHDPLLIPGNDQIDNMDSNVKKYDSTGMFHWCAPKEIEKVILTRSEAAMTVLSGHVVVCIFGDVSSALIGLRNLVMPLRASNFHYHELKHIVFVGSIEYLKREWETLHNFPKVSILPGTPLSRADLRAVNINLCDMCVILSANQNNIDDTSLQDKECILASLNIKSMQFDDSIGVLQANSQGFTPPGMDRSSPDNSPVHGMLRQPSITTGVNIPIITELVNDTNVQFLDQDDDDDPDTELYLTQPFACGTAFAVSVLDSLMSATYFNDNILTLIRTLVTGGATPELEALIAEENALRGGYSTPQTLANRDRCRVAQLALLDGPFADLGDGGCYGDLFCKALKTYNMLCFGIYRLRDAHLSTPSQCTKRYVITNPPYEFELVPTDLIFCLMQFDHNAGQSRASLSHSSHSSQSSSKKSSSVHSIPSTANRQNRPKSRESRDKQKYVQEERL

With `CC(C)(O)[C@H]1O[C@H]2CC[C@@]3(C)[C@@](O)(CC[C@H]4Cc5c([nH]c6ccccc56)[C@@]43C)C2=CC1=O` [paxilline], in test [1], the whole-cell patch clamp was determined as 1 µM.

Consider `CCCCC/C=C\C/C=C\C/C=C\C/C=C\CCCC(=O)NCC(=O)O` [NAGly], for which the “single-channel inside-out patch clamp; whole-cell patch clamp with GDPbetaS” value in test [2] was 3 µM.
